Measured values taken from patent publication US20240317712A1, “[…] DERIVATIVES AS INHIBITORS OF […]-PEPTIDE CYCLOTRANSFERASE AND […]-PEPTIDE CYCLOTRANSFERASE LIKE PROTEIN” (Boehringer Ingelheim International GmbH, priority 2023, published 2024).
pIC50: −log10 of the molar value.

test system: SIRPα signalling induced by A549 cells; assay: Assay B: SIRPα signalling assay using A549 cells; assay type: cell-based; details: Homo sapiens, 48 h compound incubation, Jurkat PathHunter SIRPaV1 reporter cells, read-out: Inhibition of SIRPα signalling induced by A549 cells: IC50
Method: (§1) Two cell types are independently used: the Raji cell line (lymphoblast-like human cell line derived from B lymphocytes from a Burkitt's lymphoma patient in 1963) and A549 cells (adenocarcinoma human alveolar basal epithelial cells).
(§2) Test compounds were dissolved in 100% DMSO and serially diluted into a white 384-well microtiter cell culture plate (PerkinElmer #60076780 in case of Raji assay; PDL-coated plates Greiner #781945 in case of A549 assay), 5000 Raji cells (ATCC #CC86) or 5000 A549 cells (ATCC #CCL-185) in Assay Complete Cell Plating reagent 30 (DiscoverX 93-0563R30B) were added per well. The assay plate was incubated for 48 h at 37° C., 95% humidity and 5% CO2. 15000 reporter cells (Jurkat PathHunter SIRPaV1, DiscoverX #93-1135C19) were added to each well, and the plate was incubated for 5 h at 37° C., 95% humidity and 5% CO2. Bioassay reagent 1 of the PathHunter Bioassay detection kit (DiscoverX 93-0001) was added to each well of the plate using a multichannel pipette followed by a 15 min incubation at room temperature. Afterwards bioassay reagent 2 was added followed by 60 min incubation at room temperature (incubation in the dark). The analysis of the data was performed using the luminescence signal generated by beta-galactosidase in the PathHunter reporter cell line. The luminescence measurement was done using a Pherastar Multi-Mode Reader. Dose-response curves & IC50 data were calculated with 4-parameter sigmoidal dose response formula.

| pIC50 | Compound |
| --- | --- |
| 7.96 | COc1ccc(C#N)c(N2CCC(c3nncn3C)CC2)c1-c1ccc(F)nc1 [Example 8] |
| 8.22 | COc1ccc(C#N)c(N2CCC(F)(c3nncn3C)CC2)c1-c1ccc(F)nc1 [Example 9] |
| 7.57 | Cn1cnnc1C1CCN(c2c(C#N)ccc(OC(F)F)c2-c2ccc(F)nc2)CC1 [Example 13] |

Continued, molecule first:

| Compound | pIC50 |
| --- | --- |
| CC(C)Oc1ccc(C#N)c(N2CCC(c3nncn3C)CC2)c1-c1ccc(F)nc1 [Example 10] | 8.05 |
| Cn1cnnc1C1CCN(c2c(C#N)ccc(OCC3CC3)c2-c2ccc(F)nc2)CC1 [Example 11] | 7.37 |
| Cn1cnnc1C1CCN(c2c(C#N)ccc(OCc3ccccc3)c2-c2ccc(F)nc2)CC1 [Example 12] | 7.85 |
| Cn1cnnc1C1CCN(c2c(-c3ccc(F)nc3)ccc(F)c2C#N)CC1 [Example 14] | 7.62 |

test system: SIRPα signalling induced by Raji cells; assay: Assay B: SIRPα signalling assay using Raji cells; assay type: cell-based; details: Homo sapiens, 48 h compound incubation, Jurkat PathHunter SIRPaV1 reporter cells, read-out: Inhibition of SIRPα signalling induced by Raji cells: IC50
Method: as §1, §2

| pIC50 | Compound |
| --- | --- |
| 7.36 | COc1ccc(C#N)c(N2CCC(c3nncn3C)CC2)c1-c1ccc(F)nc1 [Example 8] |
| 7.46 | COc1ccc(C#N)c(N2CCC(F)(c3nncn3C)CC2)c1-c1ccc(F)nc1 [Example 9] |
| 7.02 | Cn1cnnc1C1CCN(c2c(C#N)ccc(OC(F)F)c2-c2ccc(F)nc2)CC1 [Example 13] |

Continued, molecule first:

| Compound | pIC50 |
| --- | --- |
| CC(C)Oc1ccc(C#N)c(N2CCC(c3nncn3C)CC2)c1-c1ccc(F)nc1 [Example 10] | 7.28 |
| Cn1cnnc1C1CCN(c2c(C#N)ccc(OCC3CC3)c2-c2ccc(F)nc2)CC1 [Example 11] | 7.36 |
| Cn1cnnc1C1CCN(c2c(C#N)ccc(OCc3ccccc3)c2-c2ccc(F)nc2)CC1 [Example 12] | 7.70 |
| Cn1cnnc1C1CCN(c2c(-c3ccc(F)nc3)ccc(F)c2C#N)CC1 [Example 14] | 6.91 |

test system: not listed separately; assay: Assay C: Permeability in CACO-2 cells; assay type: in vitro ADME; details: human, pH 7.2; Caco-2, permeability B−A/permeability A−B
Method: Caco-2 cells (1-2×10^5 cells/1 cm^2 area) are seeded on filter inserts (Costar transwell polycarbonate or PET filters, 0.4 μm pore size) and cultured (DMEM) for 10 to 25 days. Compounds are dissolved in appropriate solvent (like DMSO, 1-20 mM stock solutions). […] The transport solution (TL) is applied to the apical or basolateral donor side for measuring A-B or B-A permeability (3 filter replicates), respectively. Samples are collected at the start and end of experiment from the donor and at various time intervals for up to 2 hours also from the receiver side for concentration measurement by HPLC-MS/MS or scintillation counting. Sampled receiver volumes are replaced with fresh receiver solution.
Efflux ratio (ER)=permeability B−A/permeability A−B

| efflux ratio | Compound |
| --- | --- |
| 4.4 | COc1ccc(C#N)c(N2CCC(c3nncn3C)CC2)c1-c1ccc(F)nc1 [Example 8] |
| 1.9 | COc1ccc(C#N)c(N2CCC(F)(c3nncn3C)CC2)c1-c1ccc(F)nc1 [Example 9] |
| 3.6 | Cn1cnnc1C1CCN(c2c(C#N)ccc(OC(F)F)c2-c2ccc(F)nc2)CC1 [Example 13] |

Further lines, the molecule ahead of its results:

| Compound | efflux ratio |
| --- | --- |
| CC(C)Oc1ccc(C#N)c(N2CCC(c3nncn3C)CC2)c1-c1ccc(F)nc1 [Example 10] | 2.4 |
| Cn1cnnc1C1CCN(c2c(C#N)ccc(OCC3CC3)c2-c2ccc(F)nc2)CC1 [Example 11] | 3.2 |
| Cn1cnnc1C1CCN(c2c(C#N)ccc(OCc3ccccc3)c2-c2ccc(F)nc2)CC1 [Example 12] | 2.6 |
| Cn1cnnc1C1CCN(c2c(-c3ccc(F)nc3)ccc(F)c2C#N)CC1 [Example 14] | 6.7 |

same assay, conditions: human; Caco-2, apical to basolateral, pH 7.2

| Papp A→B | Compound |
| --- | --- |
| 8.5 ×10⁻⁶ cm/s | COc1ccc(C#N)c(N2CCC(c3nncn3C)CC2)c1-c1ccc(F)nc1 [Example 8] |
| 28 ×10⁻⁶ cm/s | COc1ccc(C#N)c(N2CCC(F)(c3nncn3C)CC2)c1-c1ccc(F)nc1 [Example 9] |
| 9.1 ×10⁻⁶ cm/s | Cn1cnnc1C1CCN(c2c(C#N)ccc(OC(F)F)c2-c2ccc(F)nc2)CC1 [Example 13] |

Second part, the molecule before the results:

| Compound | Papp A→B |
| --- | --- |
| CC(C)Oc1ccc(C#N)c(N2CCC(c3nncn3C)CC2)c1-c1ccc(F)nc1 [Example 10] | 30 ×10⁻⁶ cm/s |
| Cn1cnnc1C1CCN(c2c(C#N)ccc(OCC3CC3)c2-c2ccc(F)nc2)CC1 [Example 11] | 28 ×10⁻⁶ cm/s |
| Cn1cnnc1C1CCN(c2c(C#N)ccc(OCc3ccccc3)c2-c2ccc(F)nc2)CC1 [Example 12] | 19 ×10⁻⁶ cm/s |
| Cn1cnnc1C1CCN(c2c(-c3ccc(F)nc3)ccc(F)c2C#N)CC1 [Example 14] | 9.6 ×10⁻⁶ cm/s |

molecular target: T1, QPCTL (Homo sapiens, UniProt Q9NXS2); assay: Assay A: biochemical QPCTL activity assay (MALDI-TOF MS, CD47 peptide substrate); details: 0.5 nM enzyme, 10 μM CD47 peptide substrate; read-out: Inhibition of QPCTL: IC50
T1 construct: made in house
T1 sequence (Q9NXS2 whole entry): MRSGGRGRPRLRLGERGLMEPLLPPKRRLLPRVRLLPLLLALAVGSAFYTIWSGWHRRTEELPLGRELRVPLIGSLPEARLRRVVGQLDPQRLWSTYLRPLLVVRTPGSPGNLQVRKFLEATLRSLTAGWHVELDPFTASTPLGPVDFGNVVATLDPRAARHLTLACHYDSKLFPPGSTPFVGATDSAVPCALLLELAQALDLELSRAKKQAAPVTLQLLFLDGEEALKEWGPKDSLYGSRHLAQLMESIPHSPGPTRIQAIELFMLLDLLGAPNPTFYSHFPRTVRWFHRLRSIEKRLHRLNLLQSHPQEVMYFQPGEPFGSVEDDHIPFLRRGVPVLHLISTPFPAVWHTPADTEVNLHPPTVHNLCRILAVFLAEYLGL
Method: (§3) QPCT or QPCTL dependent conversion of N-terminal glutamine to pyroglutamate of CD47 was monitored via MALDI-TOF MS. Test compounds were dissolved in 100% DMSO and serially diluted into clear 1,536-well microtiter plates. Enzymatic reactions were set up in assay buffer containing 20 mM Tris pH 7.5, 0.1 mM TCEP, 0.01% BSA, and 0.001% Tween20. […] The plates were incubated for 10 min in a humidified incubator at 24° C. Subsequently, 2.5 µL of CD47 peptide substrate surrogate (^19[…]^33) was added to each well (final concentration: 10 μM for QPCTL/20 μM for QPCT). The plates were mixed for 30 sec at 1,000 rpm and subsequently incubated for 40 min in a humidified incubator at 24° C. […] The plates were sealed with an adhesive foil, mixed for 30 s at 1,000 rpm and stored at room temperature until preparation of the MALDI target plates. MALDI target plates were prepared as described previously. […] QPCT or QPCTL activity was monitored by calculating the ratio between product and internal standard signals followed by normalization to high (100% activity) and low (0% activity) controls. Determination of compound potencies was obtained by fitting the dose-response data to a four-parameter logistical equation.

| pIC50 | Compound |
| --- | --- |
| 9.00 | COc1ccc(C#N)c(N2CCC(c3nncn3C)CC2)c1-c1ccc(F)nc1 [Example 8] |
| 9.00 | COc1ccc(C#N)c(N2CCC(F)(c3nncn3C)CC2)c1-c1ccc(F)nc1 [Example 9] |
| 8.70 | Cn1cnnc1C1CCN(c2c(C#N)ccc(OC(F)F)c2-c2ccc(F)nc2)CC1 [Example 13] |

The remaining lines, values behind:

| Compound | pIC50 |
| --- | --- |
| CC(C)Oc1ccc(C#N)c(N2CCC(c3nncn3C)CC2)c1-c1ccc(F)nc1 [Example 10] | 9.00 |
| Cn1cnnc1C1CCN(c2c(C#N)ccc(OCC3CC3)c2-c2ccc(F)nc2)CC1 [Example 11] | 9.00 |
| Cn1cnnc1C1CCN(c2c(C#N)ccc(OCc3ccccc3)c2-c2ccc(F)nc2)CC1 [Example 12] | 9.00 |
| Cn1cnnc1C1CCN(c2c(-c3ccc(F)nc3)ccc(F)c2C#N)CC1 [Example 14] | 8.70 |

molecular target: T2, QPCT (Homo sapiens, UniProt Q16769); assay: Assay A: biochemical QPCT activity assay (MALDI-TOF MS, CD47 peptide substrate); details: 0.5 nM enzyme, 20 μM CD47 peptide substrate; read-out: Inhibition of QPCT: IC50
T2 construct: purchased Origine (so in the source)
T2 sequence (Q16769 29-361): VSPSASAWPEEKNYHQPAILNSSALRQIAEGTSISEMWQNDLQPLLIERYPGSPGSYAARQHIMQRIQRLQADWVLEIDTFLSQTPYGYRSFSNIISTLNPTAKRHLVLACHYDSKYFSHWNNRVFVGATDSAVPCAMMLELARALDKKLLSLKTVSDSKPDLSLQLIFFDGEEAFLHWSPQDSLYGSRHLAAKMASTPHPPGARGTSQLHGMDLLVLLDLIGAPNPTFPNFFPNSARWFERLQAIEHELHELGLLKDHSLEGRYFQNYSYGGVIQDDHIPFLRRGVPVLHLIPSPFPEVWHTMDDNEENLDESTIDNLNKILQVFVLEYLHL
Method: as §3

| pIC50 | Compound |
| --- | --- |
| 8.52 | COc1ccc(C#N)c(N2CCC(c3nncn3C)CC2)c1-c1ccc(F)nc1 [Example 8] |
| 9.00 | COc1ccc(C#N)c(N2CCC(F)(c3nncn3C)CC2)c1-c1ccc(F)nc1 [Example 9] |
| 8.70 | Cn1cnnc1C1CCN(c2c(C#N)ccc(OC(F)F)c2-c2ccc(F)nc2)CC1 [Example 13] |

More lines, now with the values behind:

| Compound | pIC50 |
| --- | --- |
| CC(C)Oc1ccc(C#N)c(N2CCC(c3nncn3C)CC2)c1-c1ccc(F)nc1 [Example 10] | 9.00 |
| Cn1cnnc1C1CCN(c2c(C#N)ccc(OCC3CC3)c2-c2ccc(F)nc2)CC1 [Example 11] | 8.70 |
| Cn1cnnc1C1CCN(c2c(C#N)ccc(OCc3ccccc3)c2-c2ccc(F)nc2)CC1 [Example 12] | 9.00 |
| Cn1cnnc1C1CCN(c2c(-c3ccc(F)nc3)ccc(F)c2C#N)CC1 [Example 14] | 7.96 |
